According to US7038055B2, “Sulfone derivatives and their use in the treatment of autoimmune diseases and allergies” (SmithKlineBeecham plc, priority 2001, dated 2006):
pIC50: −log10 of the molar value.

What was measured:
MMP-13 = molecular target: T1, MMP-13 (Homo sapiens, UniProt P45452); experiment: General MMP Inhibition Assay, fluorescence quench (MMP-13); assay type: biochemical; conditions: room temperature
T1 construct: purchased Calbiochem
Description: (§1) General MMP Inhibition Assays:
(§2) Inhibition of matrix metalloprotease activity was determined using a fluorescence quench assay with appropriate substrate. For example, MMP activity was determined using MMP activated using trypsin, according to Lark et al, Connective Tissue Res. 25, 52 (1990). The MMP is incubated at room temperature in a microtitre plate in a total volume of 100 ul, containing 0.15 M Tris Cl, 15 mM CaCl2, 0.2 M NaCl, pH 7.6 (assay buffer); inhibitor at concentrations up to 100 uM, with no more than 2% DMSO final concentration, 10 uM substrate (such as SDP-3815-PI for MMP-1, Peptides International). The MMP concentration is <10 nM, and determined empirically with the appropriate substrate to give at least a 20-fold increase in fluorescence emission in 30 min. Fluorescent excitation wavelength was 355 nm, emission wavelength 400–460 nm, and data points are collected to generate slope (change in fluorescence with time). Percent inhibition for each concentration is calculated from the slope at time zero, and IC50 values from the concentration dependence. MMP-1, 2, 3, 7, 9, 13, 14 may all be assayed in the same manner, using commercially available substrates reported to be effective for each enzyme. Enzymes were obtained from Calbiochem and activated using the same trypsin method.

MMP-3 = molecular target: T2, MMP-3 (Homo sapiens, UniProt P08254); experiment: General MMP Inhibition Assay, fluorescence quench (MMP-3); assay type: biochemical; conditions: room temperature
T2 construct: purchased Calbiochem
Description: as §1, §2

[1] = molecular target: T3, human recombinant collagenase (Homo sapiens, UniProt P03956); experiment: Collagenase Inhibition Assay; assay type: biochemical; conditions: 37° C., 18 h, 3H type 1 bovine collagen; read-out: IC50, collagenase inhibition (procedure 2)
T3 construct: made in house; host or cells: E. coli
T3 sequence (P03956 100-469): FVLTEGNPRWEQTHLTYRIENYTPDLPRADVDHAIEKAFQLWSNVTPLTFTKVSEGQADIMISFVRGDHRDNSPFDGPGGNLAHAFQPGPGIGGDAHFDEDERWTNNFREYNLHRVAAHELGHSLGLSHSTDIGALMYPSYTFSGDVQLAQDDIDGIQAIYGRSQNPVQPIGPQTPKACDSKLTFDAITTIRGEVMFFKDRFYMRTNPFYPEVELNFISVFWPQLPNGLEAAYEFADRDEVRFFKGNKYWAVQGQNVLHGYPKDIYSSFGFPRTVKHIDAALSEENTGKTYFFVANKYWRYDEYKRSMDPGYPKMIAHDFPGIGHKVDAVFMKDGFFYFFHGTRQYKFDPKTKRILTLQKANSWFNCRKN
Description: Procedure 2: The ability of test compounds to inhibit matrix metalloproteases was investigated using the following procedures.
Collagenase Inhibition Assay:
The potency of compounds to act as inhibitors of collagenase was determined by the method of Cawston and Barrett (Anal. Biochem. 99, 340–345, 1979), hereby incorporated by reference, whereby a 1 mM solution of the inhibitor being tested or dilutions thereof, was incubated at 37° C. for 18 h with collagen and human recombinant collagenase, from synovial fibroblasts cloned, expressed and purified from E. Coli, (buffered with 150 mM Tris, pH 7.6, containing 15 mM calcium chloride, 0.05% Brij 35, 200 mM sodium chloride and 0.02% sodium azide). The collagen was acetylated ^3H type 1 bovine collagen prepared by the method of Cawston and Murphy (methods in Enzymology 80, 711, 1981) The samples were centrifuged to sediment undigested collagen and an aliquot of the radioactive supernatant removed for assay on a scintillation counter as a measure of hydrolysis. The collagenase activity in the presence of 1 mM inhibitor, or dilution thereof, was compared to activity in a control devoid of inhibitor and the results reported as that concentration effecting 50% of the collagenase (IC50).

[2] = system: CD23 cleavage activity (release of soluble CD23) in RPMI 8866 cell plasma membranes; experiment: RPMI 8866 Cell Membrane CD23 Cleavage Activity Assay; assay type: biochemical, human; conditions: RPMI 8866 plasma membranes, 37° C., sCD23 by EIA; read-out: IC50, inhibition of production of sCD23
Description: Procedure 1: The ability of test compounds to inhibit the release of soluble CD23 was investigated by use of the following procedure.
RPMI 8866 Cell Membrane CD23 Cleavage Activity Assay:
Plasma membranes from RPMI 8866 cells, a human Epstein-Barr virus transformed B-cell line (Sarfati et al., Immunology 60 [1987] 539–547) expressing high levels of CD23 are purified using an aqueous extraction method. Cells resuspended in homogenization buffer (20 mM HEPES pH 7.4, 150 mM NaCl, 1.5 mM MgCl2, 1 mM DTT) are broken by N2 cavitation in a Parr bomb and the plasma membrane fraction mixed with other membranes is recovered by centrifugation at 10,000×g. […]
The fractionated membranes are incubated at 37° C. for times up to 4 hrs to produce fragments of CD23 which are separated from the membrane by filtration in 0.2 micron Durapore filter plates (Millipore) after quenching the assay with a non-selecitve MMP inhibitor, e.g. 5 uM Preparation 1 from WO 95/31457 ([4-(N-Hydroxyamino)-2-(R)-isobutyl-3-(S)-(2-thiophenethiomethyl)succinyl]-(S)-phenylalanine-N-methylamide sodium salt, prepared according to the procedure described in Example 11 of WO 90/05719). sCD23 released from the membrane is determined using the EIA kit from The Binding Site (Birmingham, UK) or a similar one utilising MHM6 anti-CD23 mAb [Rowe et al., Int. […]

T2 sequence (P08254 100-477, species assumed): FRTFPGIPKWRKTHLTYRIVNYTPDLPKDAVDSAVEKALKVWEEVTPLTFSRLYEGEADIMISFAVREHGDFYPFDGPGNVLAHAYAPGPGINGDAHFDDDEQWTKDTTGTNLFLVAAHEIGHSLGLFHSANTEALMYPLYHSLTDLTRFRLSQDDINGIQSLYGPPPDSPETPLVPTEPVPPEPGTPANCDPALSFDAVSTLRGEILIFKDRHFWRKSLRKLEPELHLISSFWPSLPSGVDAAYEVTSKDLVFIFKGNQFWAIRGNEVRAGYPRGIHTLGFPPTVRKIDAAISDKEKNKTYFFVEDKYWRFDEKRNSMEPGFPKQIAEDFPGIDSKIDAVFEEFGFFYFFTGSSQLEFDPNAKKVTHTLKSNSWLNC

Row | pIC50 (MMP-13) | pIC50 (MMP-3) | pIC50 [1] | pIC50 [2] | SMILES
1 | 5.52 | – | – | – | CO[C@@H](C)C(CS(=O)(=O)Cc1cnc2ccccc2c1)N(O)C=O (stereo in doubt) [Example 2, N-[(2R,3S)-3-methoxy-1-(quinolin-3-yl-methanesulfonyl)butan-2-yl]-hydroxyformamide]
2 | 5.59 | < 5.00 | < 5.00 | 7.70 | CO[C@H](C)[C@@H](CS(=O)(=O)Cc1cnc2ccccc2c1)N(O)C=O [Example 1, N-[(2S,3R)-3-methoxy-1-(quinolin-3-yl-methanesulfonyl)butan-2-yl]-hydroxyformamide]
